Results as given in ChEMBL document CHEMBL1201862, “PubChem BioAssay data set” (2004).
The source made the active and inactive calls.

What was measured:
[1] = biological target: Potassium voltage-gated channel subfamily KQT member 2 (Rattus norvegicus, UniProt O88943); assay: blockers of KCNQ2 channel current – cell-based, automated electrophysiology, set II, rat KCNQ2, dose response (AID 588637); assay type: functional
Paired box protein Pax-8 = Paired box protein Pax-8 (Homo sapiens, UniProt Q06710); assay: PAX8 transcriptional activity inhibition in RMG-I – RMG-I cells, luciferase, cherry-pick, dose response (AID 687027); assay type: functional, cell-based;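 further: luciferase reporter driven by Pax8 target thyroperoxidase promoter measured by SteadyGlo luminescence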
Chain of Paired box protein Pax-8 (Q06710 whole entry): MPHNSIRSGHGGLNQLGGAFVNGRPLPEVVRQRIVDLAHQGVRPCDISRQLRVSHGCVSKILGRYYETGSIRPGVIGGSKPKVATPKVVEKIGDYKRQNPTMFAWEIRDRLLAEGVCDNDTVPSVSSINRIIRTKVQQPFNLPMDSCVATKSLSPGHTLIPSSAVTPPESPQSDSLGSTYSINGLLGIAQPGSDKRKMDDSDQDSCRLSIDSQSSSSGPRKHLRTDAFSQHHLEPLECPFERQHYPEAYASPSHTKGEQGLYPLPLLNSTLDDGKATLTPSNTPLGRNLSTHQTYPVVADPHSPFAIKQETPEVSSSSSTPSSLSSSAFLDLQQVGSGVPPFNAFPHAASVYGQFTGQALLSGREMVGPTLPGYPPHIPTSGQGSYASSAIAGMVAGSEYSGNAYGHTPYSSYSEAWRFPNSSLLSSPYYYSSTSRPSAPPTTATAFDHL

[2] = biological target: Mitochondrial peptide methionine sulfoxide reductase (Bos taurus, UniProt P54149); assay: Absorbance-based biochemical high throughput dose response assay for activators of Methionine sulfoxide reductase A (MsrA).; assay type: functional
Chain of Mitochondrial peptide methionine sulfoxide reductase (P54149 whole entry): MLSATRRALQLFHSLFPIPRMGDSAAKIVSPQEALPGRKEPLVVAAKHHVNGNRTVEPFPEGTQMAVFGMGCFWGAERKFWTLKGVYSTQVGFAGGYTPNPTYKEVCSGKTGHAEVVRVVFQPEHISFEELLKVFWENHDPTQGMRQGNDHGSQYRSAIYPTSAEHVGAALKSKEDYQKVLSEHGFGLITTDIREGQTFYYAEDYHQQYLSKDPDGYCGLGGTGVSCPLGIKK

[3] = biological target: Tyrosyl-DNA phosphodiesterase 2 (Homo sapiens, UniProt O95551); assay: potency against TDP2 phosphodiesterase activity – biochemical, epi absorbance, IC50, dose response (AID 743297)
Chain of Tyrosyl-DNA phosphodiesterase 2 (O95551 whole entry): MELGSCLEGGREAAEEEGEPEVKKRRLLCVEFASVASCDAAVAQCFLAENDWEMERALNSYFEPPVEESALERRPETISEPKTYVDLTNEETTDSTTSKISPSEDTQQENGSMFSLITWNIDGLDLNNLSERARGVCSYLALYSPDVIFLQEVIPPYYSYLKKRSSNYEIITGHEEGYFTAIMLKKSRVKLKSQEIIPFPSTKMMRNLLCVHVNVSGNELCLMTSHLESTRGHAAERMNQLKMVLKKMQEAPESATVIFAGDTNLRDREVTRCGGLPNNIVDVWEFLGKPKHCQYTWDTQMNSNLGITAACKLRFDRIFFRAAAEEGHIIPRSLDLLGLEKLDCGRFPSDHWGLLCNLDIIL

[4] = biological target: T1, Histone-lysine N-methyltransferase NSD2 (Homo sapiens, UniProt O96028); assay type: biochemical
T1 sequence (O96028 whole entry): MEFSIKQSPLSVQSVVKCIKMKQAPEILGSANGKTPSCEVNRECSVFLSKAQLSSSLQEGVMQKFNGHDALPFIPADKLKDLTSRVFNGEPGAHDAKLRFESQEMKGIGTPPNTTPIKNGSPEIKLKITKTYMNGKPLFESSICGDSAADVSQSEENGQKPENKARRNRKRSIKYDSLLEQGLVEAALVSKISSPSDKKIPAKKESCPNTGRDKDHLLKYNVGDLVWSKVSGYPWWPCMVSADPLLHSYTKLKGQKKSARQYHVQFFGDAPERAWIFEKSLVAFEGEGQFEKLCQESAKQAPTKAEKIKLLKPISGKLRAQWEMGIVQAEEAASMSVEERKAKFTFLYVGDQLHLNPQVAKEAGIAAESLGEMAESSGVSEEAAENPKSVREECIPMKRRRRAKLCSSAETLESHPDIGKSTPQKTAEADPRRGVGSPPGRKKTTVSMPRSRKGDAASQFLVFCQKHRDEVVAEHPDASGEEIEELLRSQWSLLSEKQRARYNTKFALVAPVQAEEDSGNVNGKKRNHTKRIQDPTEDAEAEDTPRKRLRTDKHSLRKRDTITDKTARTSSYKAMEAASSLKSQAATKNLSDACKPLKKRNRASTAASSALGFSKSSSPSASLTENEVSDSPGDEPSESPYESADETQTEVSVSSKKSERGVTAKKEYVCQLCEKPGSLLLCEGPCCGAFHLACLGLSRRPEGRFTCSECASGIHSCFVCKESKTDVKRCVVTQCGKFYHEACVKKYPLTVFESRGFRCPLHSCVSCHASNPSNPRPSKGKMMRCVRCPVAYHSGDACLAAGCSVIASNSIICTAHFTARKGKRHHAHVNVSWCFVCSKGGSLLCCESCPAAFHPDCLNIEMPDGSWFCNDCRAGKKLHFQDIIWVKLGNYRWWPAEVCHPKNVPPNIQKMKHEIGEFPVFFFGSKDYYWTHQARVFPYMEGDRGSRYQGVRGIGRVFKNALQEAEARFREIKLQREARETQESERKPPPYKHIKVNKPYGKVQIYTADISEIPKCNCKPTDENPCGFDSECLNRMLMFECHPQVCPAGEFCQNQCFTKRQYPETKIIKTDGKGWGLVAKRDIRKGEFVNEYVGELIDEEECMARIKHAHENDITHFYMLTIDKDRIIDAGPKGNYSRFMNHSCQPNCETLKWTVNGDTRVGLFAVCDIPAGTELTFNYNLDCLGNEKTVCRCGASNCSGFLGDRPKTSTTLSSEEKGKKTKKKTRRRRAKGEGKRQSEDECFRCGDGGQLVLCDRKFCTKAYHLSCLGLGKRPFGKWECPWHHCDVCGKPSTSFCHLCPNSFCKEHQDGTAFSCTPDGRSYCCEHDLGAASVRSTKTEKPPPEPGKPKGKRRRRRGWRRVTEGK

[5] = Luminescence Cell-Based Dose Response HTS to Identify Inhibitors of 5'UTR Stem-Loop Driven Prion Protein mRNA Translation in H4 Neuroglioblastoma Cells. [Related pubchem assays: 1827 (Project Summary), 1813 (Primary HTS)]; assay type: functional
[6] = biological target: Induced myeloid leukemia cell differentiation protein Mcl-1 (Homo sapiens, UniProt Q07820); assay type: functional
Chain of Induced myeloid leukemia cell differentiation protein Mcl-1 (Q07820 whole entry): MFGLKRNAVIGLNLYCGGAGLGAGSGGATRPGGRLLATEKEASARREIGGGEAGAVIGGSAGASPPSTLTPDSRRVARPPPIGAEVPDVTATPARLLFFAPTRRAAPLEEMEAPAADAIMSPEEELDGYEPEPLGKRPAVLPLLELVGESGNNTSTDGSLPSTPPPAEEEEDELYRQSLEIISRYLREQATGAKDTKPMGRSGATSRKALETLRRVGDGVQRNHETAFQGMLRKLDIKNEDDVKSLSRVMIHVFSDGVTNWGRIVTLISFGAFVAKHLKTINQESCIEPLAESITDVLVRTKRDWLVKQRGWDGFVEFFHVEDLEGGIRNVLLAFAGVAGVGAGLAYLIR

[7] = bead-based luminescence quenchers, dual-tagged ARNT – biochemical, AlphaScreen, cherry-pick, artefact control for ARNT-TACC3 interaction inhibitor project, dose response (AID 651705); assay type: functional;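 further: AlphaScreen bead proximity signal that flags compounds interfering with the detection technology; potency reflects signal decrease which marks the compound as an assay artifact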
[8] = luciferase reporter signal suppression in cells – H4 neuroglioma cells, luminescence, dose response (AID 1990); assay type: functional, cell-based
[9] = alpha-synuclein stem-loop luciferase translation blockers – H4 neuroglioma cells, luminescence, confirmation (AID 1988); assay type: functional, cell-based
[10] = biological target: T2, ATP-dependent translocase ABCB1 (Homo sapiens, UniProt P08183); assay: inhibition of BCRP-mediated JC-1 efflux – Ig-MXP3 cells, flow cytometry, set 2, dose response (AID 504566); assay type: functional; settings: read-out: EC50_MICROM_;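 further: flow cytometry median green fluorescence of retained JC-1 dye; potency of efflux pump inhibition measured as rising substrate retention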
T2 sequence (P08183 whole entry): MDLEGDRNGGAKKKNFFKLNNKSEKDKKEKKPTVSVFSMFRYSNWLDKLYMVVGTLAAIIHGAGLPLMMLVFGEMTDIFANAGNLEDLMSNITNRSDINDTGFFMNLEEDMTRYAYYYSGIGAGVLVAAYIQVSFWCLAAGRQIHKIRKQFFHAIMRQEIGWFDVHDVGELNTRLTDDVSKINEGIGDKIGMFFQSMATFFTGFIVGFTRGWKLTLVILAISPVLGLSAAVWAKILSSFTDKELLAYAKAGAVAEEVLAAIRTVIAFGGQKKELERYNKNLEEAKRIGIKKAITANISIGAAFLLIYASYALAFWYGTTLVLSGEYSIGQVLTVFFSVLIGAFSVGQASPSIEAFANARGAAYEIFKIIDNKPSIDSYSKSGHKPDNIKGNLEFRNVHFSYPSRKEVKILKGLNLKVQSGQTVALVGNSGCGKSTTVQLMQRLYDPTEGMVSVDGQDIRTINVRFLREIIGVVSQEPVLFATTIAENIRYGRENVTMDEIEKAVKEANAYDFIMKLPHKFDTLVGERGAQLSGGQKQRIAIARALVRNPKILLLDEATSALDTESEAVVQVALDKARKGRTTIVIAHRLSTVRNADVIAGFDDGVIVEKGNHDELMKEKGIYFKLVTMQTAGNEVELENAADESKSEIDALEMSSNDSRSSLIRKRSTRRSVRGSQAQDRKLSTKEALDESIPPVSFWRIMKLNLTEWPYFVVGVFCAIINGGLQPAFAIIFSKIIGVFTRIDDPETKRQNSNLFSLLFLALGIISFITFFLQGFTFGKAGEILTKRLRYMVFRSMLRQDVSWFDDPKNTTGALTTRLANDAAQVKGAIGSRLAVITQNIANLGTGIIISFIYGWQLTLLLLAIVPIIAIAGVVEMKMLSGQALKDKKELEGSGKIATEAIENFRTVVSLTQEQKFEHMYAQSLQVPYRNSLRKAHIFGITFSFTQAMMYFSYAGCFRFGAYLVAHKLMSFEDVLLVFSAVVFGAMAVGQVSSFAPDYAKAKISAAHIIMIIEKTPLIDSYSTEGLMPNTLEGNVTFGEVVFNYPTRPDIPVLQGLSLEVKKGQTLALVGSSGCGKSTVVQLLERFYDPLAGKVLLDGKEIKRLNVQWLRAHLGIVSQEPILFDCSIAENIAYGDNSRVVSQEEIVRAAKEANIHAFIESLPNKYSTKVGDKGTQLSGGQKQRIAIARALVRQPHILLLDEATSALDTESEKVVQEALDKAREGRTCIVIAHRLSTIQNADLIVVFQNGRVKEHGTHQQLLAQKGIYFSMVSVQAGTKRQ

[11] = biological target: T2, ATP-dependent translocase ABCB1; assay: P-gp JC-1 efflux blockade concentration-response – Jurkat-DNR cells, flow cytometry, set 2, dose response (AID 504569); assay type: functional; settings: read-out: EC50_MICROM_;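 further: potency of pump inhibitors that raise cellular JC-1 green fluorescence up to the nicardipine level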
[12] = biological target: T3, Tyrosine-protein phosphatase non-receptor type 22 (Homo sapiens, UniProt Q9Y2R2); assay: PTPN22 enzyme inhibitors – biochemical, fluorescence, LYP catalytic domain, selectivity assay for LMPTP inhibitor project, dose response (AID 652006); assay type: functional; settings: read-out: IC50_Mean
T3 sequence (Q9Y2R2 whole entry): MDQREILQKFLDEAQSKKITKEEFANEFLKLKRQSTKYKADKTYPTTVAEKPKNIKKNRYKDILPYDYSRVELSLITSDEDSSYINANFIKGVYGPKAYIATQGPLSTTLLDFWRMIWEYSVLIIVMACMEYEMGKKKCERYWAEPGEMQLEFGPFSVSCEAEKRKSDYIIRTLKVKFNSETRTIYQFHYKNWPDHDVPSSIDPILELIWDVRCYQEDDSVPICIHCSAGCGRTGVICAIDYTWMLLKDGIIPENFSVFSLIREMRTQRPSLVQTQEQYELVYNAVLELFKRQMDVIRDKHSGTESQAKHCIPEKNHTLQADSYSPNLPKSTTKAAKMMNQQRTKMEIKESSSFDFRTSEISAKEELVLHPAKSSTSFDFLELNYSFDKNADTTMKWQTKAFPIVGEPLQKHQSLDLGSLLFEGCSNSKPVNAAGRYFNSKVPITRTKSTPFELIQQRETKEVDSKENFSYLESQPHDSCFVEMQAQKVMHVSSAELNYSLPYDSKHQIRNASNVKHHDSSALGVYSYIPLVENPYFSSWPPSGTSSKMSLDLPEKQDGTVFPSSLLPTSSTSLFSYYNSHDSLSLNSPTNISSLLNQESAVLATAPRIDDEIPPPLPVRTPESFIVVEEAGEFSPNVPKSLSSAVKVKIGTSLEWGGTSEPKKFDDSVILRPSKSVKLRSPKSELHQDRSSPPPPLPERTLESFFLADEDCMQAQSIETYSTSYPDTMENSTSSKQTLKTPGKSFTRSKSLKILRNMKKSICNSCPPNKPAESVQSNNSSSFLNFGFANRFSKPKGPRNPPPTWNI

[13] = biological target: T4, Low molecular weight phosphotyrosine protein phosphatase (Homo sapiens, UniProt P24666); assay type: functional; settings: read-out: IC50_Mean
T4 sequence (P24666 whole entry): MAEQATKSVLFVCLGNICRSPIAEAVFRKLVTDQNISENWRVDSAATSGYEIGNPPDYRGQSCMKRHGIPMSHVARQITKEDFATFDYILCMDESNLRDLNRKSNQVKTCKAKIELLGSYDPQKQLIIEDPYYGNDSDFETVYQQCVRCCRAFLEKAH

[14] = biological target: T4, Low molecular weight phosphotyrosine protein phosphatase; assay type: functional; settings: read-out: IC50_Mean; remark: listed apart in the source
[15] = biological target: Platelet-activating factor acetylhydrolase (Mus musculus, UniProt Q60963); assay: Late stage assay provider results from the probe development effort to identify inhibitors of pPAFAH: fluorescence-based dose-response biochemical gel-based competitive Activity-Based Protein Profiling (ABPP) assay for SAR compounds.; assay type: functional
Chain of Platelet-activating factor acetylhydrolase (Q60963 whole entry, the tested form may be a part): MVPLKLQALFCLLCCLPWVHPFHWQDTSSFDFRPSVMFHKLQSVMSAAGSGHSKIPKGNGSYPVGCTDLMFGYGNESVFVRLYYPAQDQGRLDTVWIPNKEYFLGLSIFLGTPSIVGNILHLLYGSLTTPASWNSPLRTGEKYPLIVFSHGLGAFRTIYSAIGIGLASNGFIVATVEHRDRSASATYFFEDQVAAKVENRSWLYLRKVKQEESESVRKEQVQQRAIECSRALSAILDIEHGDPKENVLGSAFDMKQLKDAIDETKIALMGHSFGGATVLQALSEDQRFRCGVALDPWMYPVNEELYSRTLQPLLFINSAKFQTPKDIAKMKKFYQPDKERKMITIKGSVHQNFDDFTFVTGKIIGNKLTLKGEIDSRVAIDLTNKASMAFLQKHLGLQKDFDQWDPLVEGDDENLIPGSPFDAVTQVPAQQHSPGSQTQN

[16] = inhibition of ARNT PAS-B/TACC3 complex formation – biochemical, AlphaScreen, cherry-picked samples, confirmation (AID 651703); assay type: functional, Homo sapiens;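 further: His-tagged ARNT PAS-B domain paired with GST-TACC3 E629A dimer coactivator fragment; potency of inhibitors that break up the complex and lower AlphaScreen signal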

Chain of Potassium voltage-gated channel subfamily KQT member 2 (O88943 whole entry): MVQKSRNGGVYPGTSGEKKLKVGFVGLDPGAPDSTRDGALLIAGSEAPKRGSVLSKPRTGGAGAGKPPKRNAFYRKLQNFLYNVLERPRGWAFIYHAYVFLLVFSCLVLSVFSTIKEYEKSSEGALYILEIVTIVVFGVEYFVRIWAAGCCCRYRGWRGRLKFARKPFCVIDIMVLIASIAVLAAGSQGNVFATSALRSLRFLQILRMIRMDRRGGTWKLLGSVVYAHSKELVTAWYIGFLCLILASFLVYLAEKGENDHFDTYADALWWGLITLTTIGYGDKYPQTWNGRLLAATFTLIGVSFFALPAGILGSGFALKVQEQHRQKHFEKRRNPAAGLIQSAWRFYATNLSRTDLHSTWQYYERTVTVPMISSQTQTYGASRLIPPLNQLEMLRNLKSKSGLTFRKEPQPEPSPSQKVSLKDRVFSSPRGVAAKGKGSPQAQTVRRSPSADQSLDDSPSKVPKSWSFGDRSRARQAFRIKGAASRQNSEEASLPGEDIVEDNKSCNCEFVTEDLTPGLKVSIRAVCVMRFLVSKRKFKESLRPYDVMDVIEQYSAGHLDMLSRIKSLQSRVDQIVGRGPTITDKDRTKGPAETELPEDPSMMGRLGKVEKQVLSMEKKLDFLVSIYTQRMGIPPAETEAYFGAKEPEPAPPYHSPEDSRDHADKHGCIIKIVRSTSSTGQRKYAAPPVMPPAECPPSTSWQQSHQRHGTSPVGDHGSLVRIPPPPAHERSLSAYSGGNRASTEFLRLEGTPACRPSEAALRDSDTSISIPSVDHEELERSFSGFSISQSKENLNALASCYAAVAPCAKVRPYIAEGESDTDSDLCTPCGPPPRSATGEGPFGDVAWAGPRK

In the case of `O=C(COc1ccc(F)cc1)N(c1ccccn1)C1CCCCC1`, the IC50 [1] is reported as 1.49 µM (active).
In the case of `NC1=CC(=O)C(=O)c2cccnc21`, the AC50 (Paired box protein Pax-8) is reported as 10.5 µM (active), the EC50 [2] is reported as > 34.6 µM (inactive) and the IC50 [3] is reported as 5.99 µM (active). The AC50 [4] was 0.546 µM (active).
With `COc1cc2c(cc1O)C[C@H]1NCCc3cc4c(c-2c31)OCO4` the EC50 [5] was 85.6 µM (active), the IC50 [6] was 5.61 µM (active) and the AC50 [7] was 84.2 µM (active). The EC50 [8] was 13.2 µM (active) and the EC50 [9] was > 120 µM (not active).
In the case of `O=C(c1ccoc1)N1CCN(c2cc(-c3cccnc3)nc3cc(-c4cccc(Cl)c4)nn23)CC1`, the EC50 [10] is reported as 0.26 µM (active) and the EC50 [11] is reported as 0.97 µM (active).
With `CC(=O)Nc1ccc(CNc2nc(NCc3cccs3)nc3ccsc23)cc1` the IC50 [12] was 49.5 µM (inactive), the IC50 [13] was 13.6 µM (active) and the IC50 [14] was 15.5 µM (active).
For `Cc1cc(N2CCN(C(=O)Oc3ccc(C(F)(F)F)cc3)CC2)c2ccccc2n1`, the IC50 [15] was 0.041 µM (active).
In the case of `CN1CCN(/N=C/c2nc(-c3ccccc3Cl)n3ccccc23)CC1`, the AC50 [16] is reported as 75.6 µM (active).
